# Experimental data published in patent US20250339409A1, “USES OF PAN BET INHIBITORS” (VYNE THERAPEUTICS INC., priority 2021, published 2025).
# Test system: imiquimod-induced psoriasis
# Assay: Imiquimod-induced psoriasis (Th17 inflammation) model in mice, topical treatment once daily D7-D13: PASI, modified PASI, body weight, use of enrichment, TEWL
# Assay type: in vivo
# Design: key to Mean score use enrichment: 0 = no use of dental rolls to 4 = use of all 4; key to PASI Mean score values: sum of erythema, induration, peeling scores, each 0-3 (0 = none)
# Experimental: Thirty-six (36) female Balb/c mice are weighed and randomly divided into 9 groups (n=4) according to body weight on D1. For mice of native group 1 and tolerance groups 8 and 9, no induction of psoriasis is performed between D1 and D13. Psoriasis is induced in groups 2 to 7 by once daily topical application for 13 days (from day 1 to day 13) of 65 mg of Aldara™ cream (5.0% imiquimod) onto the shaved and epilated back of mice. Before the first treatment, a second randomization of mice of the 6 imiquimod-induced psoriasis groups is performed according to the severity of psoriasis (PASI), and also the body weight of mice. Starting on day 7 and until day 13, 100 mg of test formulations […] and 65 mg of vehicle (groups 1 and […]) are topically administered once daily for 7 consecutive days onto the shaved back skin of mice. Several measurements are taken during treatment period from day 7 to day 14: psoriasis index (PASI), body weight, use of enrichment and mortality. At the end of treatment period, TEWL is assessed, and blood and skin samples are collected. Histological analysis of skin samples is used for microscopic scoring of psoriasis and the determination of the thickness of parakeratosis and epidermis and blood analysis is used for assessing the level of proinflammatory biomarkers (cytokines assays). The effect of treatment of psoriasis induced mice with BETi formulations at the four dose levels are compared with Dermoval® cream containing 0.05% clobetasol propionate (reference) and vehicle (positive control) and also with healthy mice treated with vehicle (negative control).
# PASI scoring takes into account the following 3 parameters: the presence of erythema on the skin, induration of the skin (thickening) and peeling of the skin at the area of the induction of psoriasis.
# The presence of erythema on the skin at the area of induction of psoriasis with the following scoring grid: • 0=no or no more erythema on the skin, • 1=weak erythema on the skin, • 2=moderate erythema on the skin, • 3=important erythema on the skin.
# The presence of induration of the skin at the area of induction of psoriasis with the following scoring grid: • 0=no or no more induration of the skin, • 1=weak induration of the skin, • 2=moderate induration of the skin, • 3=important induration of the skin.
# The presence of peeling of the skin at the area of induction of psoriasis with the following scoring grid: • 0=no or no more dryness/peeling of the skin, • 1=weak dryness/peeling of the skin, • 2=moderate dryness/peeling of the skin, • 3=important dryness/peeling of the skin.
# The sum of the mean scores of these 3 parameters result in the mean PASI score.
# One of the issues with a steroid is that it causes skin thinning and continues to have an effect on no longer inflamed skin and the model set up and measurements above are not designed to reflect this negative effect. Therefore, a modified PASI (mPASI) is calculated in the same the manner as mean PASI score but excludes the scoring for induration (thickening of the skin).
# Mice are weighed three times during the week of D1 to D7, and then daily during the week of D7 to D13, as well as on the day D14 when they are sacrificed. It should be noted that a characteristic body weight loss of mice is observed after the start of the induction of psoriasis, mainly during the first days following it. The body weight loss can reach between 10 to 15%.
# For the duration of the experiment, dental rolls are used as enrichment and placed in each cage and replaced twice. Between D1 and D7, the number of dental rolls used by animals are determined twice in the morning, and are determined daily during D7 to D14, at the time of PASI or the tolerance assessment. The use of dental rolls is scored from 0=no use of dental rolls to 4=use of the 4 dental rolls. In the case where only half of a dental roll is used, a score of 0.5 is assigned. […]
smiles,measurement,setting,value
Cn1cc(-c2cccc(O)c2Oc2ccccc2)c2cc[nH]c2c1=O [BETi1],Change in Modified PASI Mean score values,"Table 1C, imiquimod-induced mice, treatment day 0, listed as BETi1 0.001%",4.25
same,Change in Modified PASI Mean score values,"Table 1C, imiquimod-induced mice, treatment day 0, listed as BETi1 0.01%",4.375
same,Change in Modified PASI Mean score values,"Table 1C, imiquimod-induced mice, treatment day 0, listed as BETi1 0.1%",4.375
same,Change in Modified PASI Mean score values,"Table 1C, imiquimod-induced mice, treatment day 1, listed as BETi1 0.001%",5.375
same,Change in Modified PASI Mean score values,"Table 1C, imiquimod-induced mice, treatment day 1, listed as BETi1 0.01%",4
same,Change in Modified PASI Mean score values,"Table 1C, imiquimod-induced mice, treatment day 1, listed as BETi1 0.1%",4.375
same,Change in Modified PASI Mean score values,"Table 1C, imiquimod-induced mice, treatment day 2, listed as BETi1 0.001%",4.75
same,Change in Modified PASI Mean score values,"Table 1C, imiquimod-induced mice, treatment day 2, listed as BETi1 0.01%",2.875
same,Change in Modified PASI Mean score values,"Table 1C, imiquimod-induced mice, treatment day 2, listed as BETi1 0.1%",3.125
same,Change in Modified PASI Mean score values,"Table 1C, imiquimod-induced mice, treatment day 3, listed as BETi1 0.001%",4.25
same,Change in Modified PASI Mean score values,"Table 1C, imiquimod-induced mice, treatment day 3, listed as BETi1 0.01%",2.5
same,Change in Modified PASI Mean score values,"Table 1C, imiquimod-induced mice, treatment day 3, listed as BETi1 0.1%",2
same,Change in Modified PASI Mean score values,"Table 1C, imiquimod-induced mice, treatment day 4, listed as BETi1 0.001%",4
same,Change in Modified PASI Mean score values,"Table 1C, imiquimod-induced mice, treatment day 4, listed as BETi1 0.01%",2.125
same,Change in Modified PASI Mean score values,"Table 1C, imiquimod-induced mice, treatment day 4, listed as BETi1 0.1%",0.75
same,Change in Modified PASI Mean score values,"Table 1C, imiquimod-induced mice, treatment day 5, listed as BETi1 0.001%",3.375
same,Change in Modified PASI Mean score values,"Table 1C, imiquimod-induced mice, treatment day 5, listed as BETi1 0.01%",1
same,Change in Modified PASI Mean score values,"Table 1C, imiquimod-induced mice, treatment day 5, listed as BETi1 0.1%",0.375
same,Change in Modified PASI Mean score values,"Table 1C, imiquimod-induced mice, treatment day 6, listed as BETi1 0.001%",3
same,Change in Modified PASI Mean score values,"Table 1C, imiquimod-induced mice, treatment day 6, listed as BETi1 0.01%",1.25
same,Change in Modified PASI Mean score values,"Table 1C, imiquimod-induced mice, treatment day 6, listed as BETi1 0.1%",0.25
same,Change in Modified PASI Mean score values,"Table 1C, imiquimod-induced mice, treatment day 7, listed as BETi1 0.001%",3
same,Change in Modified PASI Mean score values,"Table 1C, imiquimod-induced mice, treatment day 7, listed as BETi1 0.01%",1
same,Change in Modified PASI Mean score values,"Table 1C, imiquimod-induced mice, treatment day 7, listed as BETi1 0.1%",0.25
same,Change in Modified PASI Mean score values,"Table 1D, relative to day 0 = 100, treatment day 0",100
same,Change in Modified PASI Mean score values,"Table 1D, relative to day 0 = 100, treatment day 1, listed as BETi1 0.001%",126.47
same,Change in Modified PASI Mean score values,"Table 1D, relative to day 0 = 100, treatment day 1, listed as BETi1 0.01%",91.43
same,Change in Modified PASI Mean score values,"Table 1D, relative to day 0 = 100, treatment day 1, listed as BETi1 0.1%",100
same,Change in Modified PASI Mean score values,"Table 1D, relative to day 0 = 100, treatment day 2, listed as BETi1 0.001%",111.76
same,Change in Modified PASI Mean score values,"Table 1D, relative to day 0 = 100, treatment day 2, listed as BETi1 0.01%",65.71
same,Change in Modified PASI Mean score values,"Table 1D, relative to day 0 = 100, treatment day 2, listed as BETi1 0.1%",71.43
same,Change in Modified PASI Mean score values,"Table 1D, relative to day 0 = 100, treatment day 3, listed as BETi1 0.001%",100
same,Change in Modified PASI Mean score values,"Table 1D, relative to day 0 = 100, treatment day 3, listed as BETi1 0.01%",57.14
same,Change in Modified PASI Mean score values,"Table 1D, relative to day 0 = 100, treatment day 3, listed as BETi1 0.1%",45.72
same,Change in Modified PASI Mean score values,"Table 1D, relative to day 0 = 100, treatment day 4, listed as BETi1 0.001%",94.12
same,Change in Modified PASI Mean score values,"Table 1D, relative to day 0 = 100, treatment day 4, listed as BETi1 0.01%",48.57
same,Change in Modified PASI Mean score values,"Table 1D, relative to day 0 = 100, treatment day 4, listed as BETi1 0.1%",17.142
same,Change in Modified PASI Mean score values,"Table 1D, relative to day 0 = 100, treatment day 5, listed as BETi1 0.001%",79.41
same,Change in Modified PASI Mean score values,"Table 1D, relative to day 0 = 100, treatment day 5, listed as BETi1 0.01%",22.86
same,Change in Modified PASI Mean score values,"Table 1D, relative to day 0 = 100, treatment day 5, listed as BETi1 0.1%",8.57
same,Change in Modified PASI Mean score values,"Table 1D, relative to day 0 = 100, treatment day 6, listed as BETi1 0.001%",70.59
same,Change in Modified PASI Mean score values,"Table 1D, relative to day 0 = 100, treatment day 6, listed as BETi1 0.01%",28.57
same,Change in Modified PASI Mean score values,"Table 1D, relative to day 0 = 100, treatment day 6, listed as BETi1 0.1%",5.71
same,Change in Modified PASI Mean score values,"Table 1D, relative to day 0 = 100, treatment day 7, listed as BETi1 0.001%",70.59
same,Change in Modified PASI Mean score values,"Table 1D, relative to day 0 = 100, treatment day 7, listed as BETi1 0.01%",22.86
same,Change in Modified PASI Mean score values,"Table 1D, relative to day 0 = 100, treatment day 7, listed as BETi1 0.1%",5.71
same,Mean score use enrichment,"imiquimod-induced mice, Before D 1, listed as BETi 0.001%",4.00
same,Mean score use enrichment,"imiquimod-induced mice, Before D 1, listed as BETi 0.01%",4.00
same,Mean score use enrichment,"imiquimod-induced mice, Before D 1, listed as BETi 0.1%",4.00
same,Mean score use enrichment,"imiquimod-induced mice, Before D 1, listed as BETi 1.0%",3.75
same,Modified PASI Mean score values,"imiquimod-induced mice, D 1",0.00
same,PASI Mean score values,"imiquimod-induced mice, D 1",0.00
same,Mean score use enrichment,"imiquimod-induced mice, D 1-D 8, listed as BETi 0.001%",1.79
same,Mean score use enrichment,"imiquimod-induced mice, D 1-D 8, listed as BETi 0.01%",1.61
same,Mean score use enrichment,"imiquimod-induced mice, D 1-D 8, listed as BETi 0.1%",1.54
same,Mean score use enrichment,"imiquimod-induced mice, D 1-D 8, listed as BETi 1.0%",2.56
same,Mean body weights,"imiquimod-induced mice, D 1, listed as BETi1 1.0%",18.11
